Assay results reported in PubChem BioAssay AID1645862 (Buhrlage Lab, Dana-Farber Cancer Institute and Novartis …, 2021).
Activity calls are given as the source filed them. The rule behind the calls is not given here.

Molecular target: Ubiquitin carboxyl-terminal hydrolase 8 (Homo sapiens) (UniProt P40818)
Assay: Ubiquitin-specific protease 8 inhibitors, concentration-effect, biochemical, validation of initial actives (AID 1645862);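 note: potency reflects inhibition of USP8 cleavage of a ubiquitin rhodamine substrate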
Conditions: recombinant USP8 deubiquitinase activity assay

Ubiquitin carboxyl-terminal hydrolase 8 (Homo sapiens), sequence (P40818 whole entry, looked up): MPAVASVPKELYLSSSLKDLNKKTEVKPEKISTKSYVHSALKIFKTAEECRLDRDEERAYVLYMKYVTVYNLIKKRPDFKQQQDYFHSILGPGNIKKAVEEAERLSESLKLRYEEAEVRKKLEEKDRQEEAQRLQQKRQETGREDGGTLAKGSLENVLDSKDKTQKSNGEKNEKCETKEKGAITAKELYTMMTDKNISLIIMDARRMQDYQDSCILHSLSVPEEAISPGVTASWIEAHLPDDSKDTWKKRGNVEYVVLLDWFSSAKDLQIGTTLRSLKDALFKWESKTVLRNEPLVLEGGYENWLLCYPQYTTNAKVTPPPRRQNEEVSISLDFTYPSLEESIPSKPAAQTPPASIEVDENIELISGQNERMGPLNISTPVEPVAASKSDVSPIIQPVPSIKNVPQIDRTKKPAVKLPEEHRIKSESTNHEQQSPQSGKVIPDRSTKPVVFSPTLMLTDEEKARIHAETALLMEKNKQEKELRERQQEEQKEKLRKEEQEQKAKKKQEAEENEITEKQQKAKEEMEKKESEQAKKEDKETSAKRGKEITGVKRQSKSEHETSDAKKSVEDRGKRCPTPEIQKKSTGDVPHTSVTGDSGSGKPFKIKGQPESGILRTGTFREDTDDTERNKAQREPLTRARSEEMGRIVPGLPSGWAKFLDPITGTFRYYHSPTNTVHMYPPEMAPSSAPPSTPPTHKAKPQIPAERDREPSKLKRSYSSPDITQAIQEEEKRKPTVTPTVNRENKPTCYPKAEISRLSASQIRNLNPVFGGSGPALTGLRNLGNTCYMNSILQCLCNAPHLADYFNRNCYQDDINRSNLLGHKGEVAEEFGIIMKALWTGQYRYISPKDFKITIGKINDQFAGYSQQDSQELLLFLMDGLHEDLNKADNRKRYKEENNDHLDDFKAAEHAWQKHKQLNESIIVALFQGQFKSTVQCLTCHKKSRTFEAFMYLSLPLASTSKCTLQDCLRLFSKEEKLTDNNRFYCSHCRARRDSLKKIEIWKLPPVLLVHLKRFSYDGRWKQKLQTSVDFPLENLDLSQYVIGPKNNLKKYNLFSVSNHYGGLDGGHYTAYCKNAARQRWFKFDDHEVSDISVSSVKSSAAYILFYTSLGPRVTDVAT

SMILES | IC50
O=C(c1ccc2c(c1)OCO2)[C@@H]1[C@H](C(=O)OC(c2ccccc2)c2ccccc2)N2c3ccccc3C=CC2[C@@]12C(=O)Nc1ccccc12 (stereo partly drawn) | > 40 µM (inactive)
O=C(Cn1c(=O)n(-c2ccc(Cl)cc2)c(=O)c2c3c(sc21)CCCC3)NCC1CCCO1 (stereo not drawn) | > 40 µM (inactive)
O=c1cc(-c2ccc(O)c(O)c2)oc2cc(O[C@@H]3O[C@H](CO)[C@@H](O)[C@H](O)[C@H]3O)cc(O)c12 | 2.01 µM
C=C/C(C)=C/[C@@]1(C)SC(=O)C(C)=C1O | 14.5 µM
COC(=O)c1ccc2c(=O)n(CCCCCC(=O)NCCc3ccc(OC)c(OC)c3)c(=O)[nH]c2c1 | > 40 µM (inactive)
O=C(Cn1nc2c3c4c(sc3ncn2c1=O)CCCCC4)Nc1ccc(Cl)cc1F | 26.1 µM
O=C(Nc1ccccc1C(F)(F)F)c1cccc(S(=O)(=O)Nc2cc(C(F)(F)F)ccc2Cl)c1 | > 40 µM (inactive)
O=C(Cn1c(-c2ccccc2)ncc(C(=O)NC2CC2)c1=O)Nc1ccccc1 | > 40 µM (inactive)
Cc1cc(-c2nnc(SCC(=O)Nc3ccc(Br)c(C)c3)n2N)n[nH]1 | > 40 µM (inactive)
COc1c(O)cc(CC(=O)O)c(C(C)=O)c1O | 4.69 µM
Cc1ccc(NC(=O)Nc2ccccc2OCc2cc(=O)n3cc(C)ccc3n2)cc1 | > 40 µM (inactive)
CCOC(=O)c1ccc(NC(=O)Cn2c(=O)n(-c3ccc(CC(=O)NCc4ccco4)cc3)c(=O)c3ccccc32)cc1 | > 40 µM (inactive)
COc1ccc(CC(=O)OCC(=O)N2c3ccccc3NC(=O)C2(C)C)cc1 | > 40 µM (inactive)
Cc1ccccc1NC(=O)CSC1=NC2(CCCCC2)Nc2ccccc21 | > 40 µM (inactive)
COc1ccc(C(=O)C(C)OC(=O)c2cccc(S(=O)(=O)Nc3cc([N+](=O)[O-])ccc3OC)c2)c(OC)c1 (stereo not drawn) | > 40 µM (inactive)
COc1ccc(NC(=O)[C@H](C)NC(=O)c2cc3c(OC)cccc3[nH]2)cc1Cl | > 40 µM (inactive)
O=C(NCCc1nc2ccccc2n1CCCOc1ccccc1Cl)C1CCCCC1 | > 40 µM (inactive)
Cc1cccc(NC(=O)c2cc(-c3ccc(C)c(C)c3O)n[nH]2)c1 | > 40 µM (inactive)
O=C(CCSc1nnnn1-c1ccccc1)Nc1cc(C(F)(F)F)ccc1Cl | > 40 µM (inactive)
O=C(/C=C/c1cccc([N+](=O)[O-])c1)N1CCc2ccccc21 | > 40 µM (inactive)
Cc1ccc(NC(=O)c2ccc3nn(CC(=O)Nc4ccc(F)cc4F)c(=O)n3c2)cc1 | > 40 µM (inactive)
CCOc1cc2c(cc1OCC)C(c1cc3c(cc1Br)OCO3)NCC2 (stereo not drawn) | > 40 µM (inactive)

SMILES | IC50
COc1cc(=O)c(C(=O)Nc2ccc(C#N)cc2)nn1-c1cccc(F)c1 | > 40 µM (inactive)
Cc1ccc2nc(CNc3ccc(F)cc3C)cc(=O)n2c1 | > 40 µM (inactive)
COc1cccc(-c2cncc(C3CCN(S(=O)(=O)N(C)C)CC3)n2)c1 | > 40 µM (inactive)
COc1ccc(CNc2ccc(C(=O)OCc3ccccc3F)cc2S(=O)(=O)Nc2cccc(OC)c2)cc1 | > 40 µM (inactive)
CCCN1CCN(C(=O)Cn2c(C)ccc(NC(=O)c3ccccc3)c2=O)CC1 | > 40 µM (inactive)
O=C(Nc1ccccc1)Nc1ccc(F)c(-c2nnc(-c3ccccc3)o2)c1 | > 40 µM (inactive)
c1ccc(CNc2ccc(-c3ccccc3)nn2)cc1 | > 40 µM (inactive)
CC(=O)c1ccc(NC(=O)C2CC(=O)Nc3nc(SCc4ccccc4)nn32)cc1 (stereo not drawn) | > 40 µM (inactive)
COc1cccc(C(=O)Nc2ccc(SC(C(=O)Nc3ccccc3)c3ccccc3)cc2)c1 (stereo not drawn) | > 40 µM (inactive)
O=S1(=O)CCN(Cc2cccnc2)c2c(F)nc(N3CCOCC3)c(F)c21 | > 40 µM (inactive)
CNC(=O)Cc1ccc(NC(=O)/C=C/c2cn(-c3ccccc3)nc2-c2ccc(F)cc2)cc1 | > 40 µM (inactive)
O=C(c1cscn1)N1CCC2(CC1)CC1(CO2)Nc2ccccc2-n2cccc21 (stereo not drawn) | > 40 µM (inactive)
Cc1ccccc1NC(=O)N1CCC(CC(=O)N2CCCCC2)CC1 | > 40 µM (inactive)
COC(=O)c1ccccc1NC(=O)C1CCCN(c2nnc(-n3cccc3)s2)C1 (stereo not drawn) | > 40 µM (inactive)
CCCc1nnc(NC(=O)c2cc(-c3ccccc3O)n[nH]2)s1 | > 40 µM (inactive)
CCn1cc2c(n1)c(=O)n(Cc1ccccc1)c(=O)n2CC(=O)Nc1ccc(C(C)C)cc1 | > 40 µM (inactive)
COc1ccc(N(CC(=O)NC2CCCCC2)C(=O)c2ccc(-c3ccccc3)[nH]2)cc1OC | > 40 µM (inactive)
N#Cc1cccnc1N1CCN(C(=O)Nc2cccc3ccccc23)CC1 | > 40 µM (inactive)
Cc1cccc(C)c1NC(=O)COc1ccccc1-c1nnc(-c2ccccc2)o1 | > 40 µM (inactive)
O=C(NC1CCCC1)C1CC(=O)N(c2cccc(-c3noc(-c4cccs4)n3)c2)C1 (stereo not drawn) | > 40 µM (inactive)
O=C(Nc1ccc(Br)cc1F)c1ccc(S(=O)(=O)N2CCCC2)cc1 | > 40 µM (inactive)
O=C(CCCn1c(=O)c2ccccc2n(CC(=O)c2ccc(Br)cc2)c1=O)NC1CCCC1 | > 40 µM (inactive)

SMILES | IC50
O=c1c2ccccc2oc2nc(-c3cccs3)n(-c3ccccc3)c(=O)c12 | 2.3 µM
O=C(Cn1c(=O)n(Cc2ccc3c(c2)OCO3)c(=O)c2ccccc21)NCc1ccco1 | > 40 µM (inactive)
COc1ccc(-c2cc(C(=O)Nc3ccnn3Cc3ccccc3)no2)cc1 | > 40 µM (inactive)
O=C(c1ccco1)N1CCC2(CC1)CC1(CO2)Nc2ccccc2-n2cccc21 (stereo not drawn) | 22.6 µM
Cc1ccc(-c2cnc(C3CC3)o2)cc1S(=O)(=O)Nc1ccc(F)c(Cl)c1 | > 40 µM (inactive)
COc1cc(O)cc2c1C(=O)OC(C)CCCCCCC2 (stereo not drawn) | > 40 µM (inactive)
CCc1nc(SCC(=O)Nc2cc(Cl)ccc2C)c2oc3ccccc3c2n1 | > 40 µM (inactive)
COc1ccc(OC)c(NC(=O)Cn2c(=O)n(C3CCCCC3)c(=O)c3ccccc32)c1 | > 40 µM (inactive)
Cc1sc(NC(=O)c2ccc(S(=O)(=O)N(C)Cc3ccccc3)cc2)c(C(N)=O)c1C | > 40 µM (inactive)
CCOc1ccc(-c2nc(SCC(=O)Nc3cccc(C)c3)n3[nH]c(=O)cc3n2)cc1 | > 40 µM (inactive)
Cc1ccc2c(c1)c(=O)c(C(=O)c1ccccc1)cn2CC(=O)Nc1ccccc1 | 27.5 µM
COc1ccc(CNC(=O)CCCc2nnc3c(=O)n(-c4cc(C)cc(C)c4)ccn23)cc1 | > 40 µM (inactive)
O=C(Cn1cnc(-c2noc(-c3cccc(F)c3)n2)c1)Nc1ccccc1 | > 40 µM (inactive)
Cc1ccc2c(c1)N=C(c1ccc([N+](=O)[O-])cc1)CO2 | > 40 µM (inactive)
O=C(Cn1nnc2ccccc21)Nc1nc(-c2ccc3c(c2)CCN3C(=O)c2ccccc2F)cs1 | > 40 µM (inactive)
O=C(Nc1ccc(-n2cccc2)cc1)c1cccc([N+](=O)[O-])c1 | > 40 µM (inactive)
O=C(Nc1ccc(F)cc1F)NC1CCN(c2ccccc2)C1=O (stereo not drawn) | > 40 µM (inactive)
COc1ccc(NC(=O)c2cc(-c3cccnc3)n[nH]2)cc1Cl | > 40 µM (inactive)
Cn1c(=O)c(-c2ccc(C(=O)NCc3cccc(Cl)c3)cc2)nc2cccnc21 | > 40 µM (inactive)
Cc1cc(OCC(=O)Nc2ccccc2C(=O)Nc2ccccc2)ccc1Cl | > 40 µM (inactive)
COCCNC(=O)Cn1c(=O)n(Cc2ccc(C(=O)NCc3ccc(C)cc3)cc2)c(=O)c2ccccc21 | > 40 µM (inactive)
CC1CCCN(S(=O)(=O)c2ccc(-n3cnc(C(=O)NC4CC4)c3)nc2)C1 (stereo not drawn) | > 40 µM (inactive)

SMILES | IC50
Cc1cccc(N2C(=O)/C(=C\c3cc(C#N)n(C)c3C)c3ccccc3C2=O)c1 | > 40 µM (inactive)
O=C(CSc1nnc2c3ccccc3nc(-c3ccco3)n12)N1CCCc2ccccc21 | > 40 µM (inactive)
NC(=O)C1(N2CCCCC2)CCN(c2ncc3c(=O)n(-c4ccccc4)c(=O)[nH]c3n2)CC1 | > 40 µM (inactive)
COc1cc(NS(=O)(=O)c2ccc(NC(=O)COc3ccc(C)cc3Br)cc2)nc(OC)n1 | > 40 µM (inactive)
C=C/C(=C/C(=O)C[C@H](C)C[C@@H](C)CC[C@H](O)[C@H](C)C(=O)CC(O)[C@H](C)[C@@H](C)OC(=O)C[C@@H](O)C1=C(C)C(=O)OC1=O)CC (stereo partly drawn) | 2.6 µM
O=C(Nc1cccc(Cl)c1)c1ncn2c1CNS(=O)(=O)c1ccccc1-2 | > 40 µM (inactive)
O=C(COc1ccccc1-c1nnc(-c2ccccc2)o1)NCCc1ccco1 | 29.1 µM
CC(CCc1ccccc1)NC(=O)Cn1c(=O)c2cccn2c2ccccc21 (stereo not drawn) | > 40 µM (inactive)
CC(=O)O[C@@H](C/C=C(\C)C(=O)O)[C@@H](C)[C@H]1C[C@H](OC(C)=O)[C@@]2(C)C3=CC[C@H]4C(C)(C)[C@H](O)CC[C@]4(C)C3=CC[C@]12C | > 40 µM (inactive)
COc1ccc(CSc2nc3ccncc3n2CC(=O)Nc2ccc(C)cc2C)cc1 | > 40 µM (inactive)
COc1cc(Cl)c(C)cc1NC(=O)Cn1c(=O)n(CC(=O)NCc2ccco2)c(=O)c2ccccc21 | > 40 µM (inactive)
Cc1cc(C)c(NC(=O)CSc2nc3nccnc3c(=O)n2Cc2ccccc2Cl)c(C)c1 | > 40 µM (inactive)
COc1ccc(-c2cc(-c3ccc(F)cc3)[nH]c(=O)c2C#N)cc1 | > 40 µM (inactive)
Cc1cc(=O)[nH]c(NC2CCN(S(=O)(=O)c3ccccc3C(F)(F)F)CC2)n1 | > 40 µM (inactive)
CCOc1ccc(-c2noc(-c3nn(-c4cccc(OC)c4)ccc3=O)n2)cc1 | 34.1 µM
O=C(COc1ccc(Cl)cc1)Nc1noc(-c2cccs2)n1 | > 40 µM (inactive)
COc1ccc(CNC(=O)c2ccc3c(=O)nc4c(-c5cccc(C)c5)n[nH]n4c3c2)cc1 | > 40 µM (inactive)
O=C(Cn1c(=O)n(-c2ccccc2)c(=O)c2ccc(C(=O)NCc3ccc4c(c3)OCO4)cc21)NCCC1=CCCCC1 | > 40 µM (inactive)
Cc1ccc(Cn2nnc3c(=O)[nH]c(C4CCN(S(=O)(=O)c5ccc(S(=O)(=O)NC6CCCC6)cc5)CC4)nc32)cc1 | > 40 µM (inactive)
O=C(Nc1ccccc1Cl)c1cc(-c2ccncc2)n[nH]1 | > 40 µM (inactive)
Cc1ccc(-n2nc(C)c3c2NC(=O)CC3C(=O)c2cc3ccccc3o2)cc1 (stereo not drawn) | > 40 µM (inactive)
Cc1nn(-c2ccccc2)c2c1N=C1C(Cl)=CC(Cl)=CN1C21C(=O)Nc2ccccc21 (stereo not drawn) | > 40 µM (inactive)
